From ChEMBL document CHEMBL1201862, “PubChem BioAssay data set” (2004)
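Dose response: 5 concentrations. Exposure: 48 h. Format: 96-well plates. Endpoint: linear interpolation; highest concentration if not reached. GI50 is the concentration that inhibits growth by half.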 Active and inactive are the calls of the source. No stated cut-off is given here; in the data, active = GI50 up to about 1.1 µM and inactive = higher.

Columns and labels:
Assay in all cases: NCI tumour cell line growth inhibition, 48 h
SF-539 = system: SF-539
KM12 = system: KM12
NCI-H522 = system: NCI-H522
MDA-N = system: MDA-N
COLO 205 = system: COLO 205
NCI-H23 = system: NCI-H23
PC-3 = system: PC-3
UO-31 = system: UO-31
HT-29 = system: HT-29
HOP-62 = system: HOP-62
OVCAR-5 = system: OVCAR-5
SK-OV-3 = system: SK-OV-3
RPMI-8226 = system: RPMI-8226
CAKI-1 = system: CAKI-1
NCI/ADR-RES = system: NCI/ADR-RES
HCT-116 = system: HCT-116
SF-295 = system: SF-295
HCT-15 = system: HCT-15
MDA-MB-435 = system: MDA-MB-435
SNB-19 = system: SNB-19

| SMILES | GI50 (SF-539) | GI50 (KM12) | GI50 (NCI-H522) | GI50 (MDA-N) | GI50 (COLO 205) | GI50 (NCI-H23) | GI50 (PC-3) | GI50 (UO-31) | GI50 (HT-29) | GI50 (HOP-62) | GI50 (OVCAR-5) | GI50 (SK-OV-3) | GI50 (RPMI-8226) | GI50 (CAKI-1) | GI50 (NCI/ADR-RES) | GI50 (HCT-116) | GI50 (SF-295) | GI50 (HCT-15) [µM] | GI50 (MDA-MB-435) | GI50 (SNB-19) |
| --- | --- | --- | --- | --- | --- | --- | --- | --- | --- | --- | --- | --- | --- | --- | --- | --- | --- | --- | --- | --- |
| Cc1cc(C(=C2C=CC(=N)C=C2)c2ccc(N)cc2)ccc1N [FUCHSIN, BASIC] | 0.706 µM (active) | 2.34 µM (inactive) | 2.84 µM (inactive) | 4.72 µM (inactive) | 1.01 µM (active) | 2.98 µM (inactive) | 3.48 µM (inactive) | 17.6 µM (inactive) | 3.66 µM (inactive) | 0.724 µM (active) | 11.4 µM (inactive) | 3.58 µM (inactive) | 2.42 µM (inactive) | 11.9 µM (inactive) | 11.7 µM (inactive) | 3.36 µM (inactive) | 0.564 µM (active) | 12 | 4.08 µM (inactive) | 0.615 µM (active) |
| O=C1C(NS(=O)(=O)c2ccccc2)=C(n2ccnc2)C(=O)c2ccccc21 | > 100 µM (inactive) | > 100 µM (inactive) | > 100 µM (inactive) | > 100 µM (inactive) | > 100 µM (inactive) | > 100 µM (inactive) | > 100 µM (inactive) | > 100 µM (inactive) | > 100 µM (inactive) | > 100 µM (inactive) | > 100 µM (inactive) | > 100 µM (inactive) | > 100 µM (inactive) | > 100 µM (inactive) | > 100 µM (inactive) | > 100 µM (inactive) | > 100 µM (inactive) | > 100 | > 100 µM (inactive) | > 100 µM (inactive) |
| CCN(c1cccc(NC(=S)Nc2ccccc2N(CC)c2cc(-c3ccccc3)no2)c1)c1cc(-c2ccccc2)no1 | > 100 µM (inactive) | > 100 µM (inactive) | > 100 µM (inactive) | > 100 µM (inactive) | > 100 µM (inactive) | > 100 µM (inactive) | > 100 µM (inactive) | > 100 µM (inactive) | > 100 µM (inactive) | > 100 µM (inactive) | > 100 µM (inactive) | > 100 µM (inactive) | > 100 µM (inactive) | > 100 µM (inactive) | > 100 µM (inactive) | > 100 µM (inactive) | > 100 µM (inactive) | > 100 | > 100 µM (inactive) | > 100 µM (inactive) |
| CC1(C)CN=C(Nc2ccc(F)cc2)S1 | > 100 µM (inactive) | > 100 µM (inactive) | > 100 µM (inactive) | > 100 µM (inactive) | > 100 µM (inactive) | > 100 µM (inactive) | > 100 µM (inactive) | > 100 µM (inactive) | > 100 µM (inactive) | > 100 µM (inactive) | > 100 µM (inactive) | > 100 µM (inactive) | > 100 µM (inactive) | > 100 µM (inactive) | > 100 µM (inactive) | > 100 µM (inactive) | > 100 µM (inactive) | > 100 | > 100 µM (inactive) | > 100 µM (inactive) |
| CC1=NN(c2nc(N)nc(/C(C#N)=C/c3ccccc3O)n2)C(C)(C)C1 | 16.9 µM (inactive) | 15.8 µM (inactive) | 19.8 µM (inactive) | 15.3 µM (inactive) | 17.4 µM (inactive) | 16.8 µM (inactive) | 16 µM (inactive) | 18.8 µM (inactive) | 19.8 µM (inactive) | 20.5 µM (inactive) | 15.4 µM (inactive) | 23.1 µM (inactive) | 17 µM (inactive) | 19.6 µM (inactive) | 21.4 µM (inactive) | 18.3 µM (inactive) | 15.6 µM (inactive) | 19.4 | 17.3 µM (inactive) | 25.5 µM (inactive) |
| CN1CCOC1(C)c1ccccc1 (stereo not given) | > 100 µM (inactive) | > 100 µM (inactive) | > 100 µM (inactive) | > 100 µM (inactive) | > 100 µM (inactive) | > 100 µM (inactive) | > 100 µM (inactive) | > 100 µM (inactive) | > 100 µM (inactive) | > 100 µM (inactive) | > 100 µM (inactive) | > 100 µM (inactive) | > 100 µM (inactive) | > 100 µM (inactive) | > 100 µM (inactive) | > 100 µM (inactive) | > 100 µM (inactive) | > 100 | > 100 µM (inactive) | > 100 µM (inactive) |
| CC(NNC(=O)c1ccncc1)c1ccc(Cl)cc1Cl (stereo not given) | > 100 µM (inactive) | 49.3 µM (inactive) | > 100 µM (inactive) | > 100 µM (inactive) | > 100 µM (inactive) | > 100 µM (inactive) | 59.8 µM (inactive) | 38.9 µM (inactive) | > 100 µM (inactive) | 88.5 µM (inactive) | > 100 µM (inactive) | > 100 µM (inactive) | 77.8 µM (inactive) | > 100 µM (inactive) | 93.8 µM (inactive) | > 100 µM (inactive) | 72.9 µM (inactive) | 65.6 | > 100 µM (inactive) | > 100 µM (inactive) |
| CN(CC(=O)O)c1ncc2c(n1)C=CCC2 | > 100 µM (inactive) | > 100 µM (inactive) | > 100 µM (inactive) | > 100 µM (inactive) | > 100 µM (inactive) | > 100 µM (inactive) | > 100 µM (inactive) | > 100 µM (inactive) | > 100 µM (inactive) | > 100 µM (inactive) | > 100 µM (inactive) | > 100 µM (inactive) | > 100 µM (inactive) | > 100 µM (inactive) | > 100 µM (inactive) | > 100 µM (inactive) | > 100 µM (inactive) | > 100 | > 100 µM (inactive) | > 100 µM (inactive) |
| CCOc1c2ccsc2c(OCC)c2ccsc12 | 2.41 µM (inactive) | 3.77 µM (inactive) | 3.27 µM (inactive) | 0.94 µM (active) | 4.21 µM (inactive) | 4.34 µM (inactive) | 3.94 µM (inactive) | 9.02 µM (inactive) | 3.48 µM (inactive) | 4.78 µM (inactive) | 11.8 µM (inactive) | 3.92 µM (inactive) | 4.06 µM (inactive) | 4.61 µM (inactive) | 7.05 µM (inactive) | 4.06 µM (inactive) | 2.57 µM (inactive) | 4.06 | 0.766 µM (active) | 4.37 µM (inactive) |
